Usually IC50 stands for the concentration that gives 50% inhibition.

Read-outs that look alike come from different tables or passages of the source.

The target of experiment [1] is Acetylcholinesterase (Homo sapiens, UniProt P22303). The experiment is described as follows: Acetylcholinesterase Inhibition Assay (photometric method of Ellman et al.). The class given is biochemical.
The test system of experiment [2] is Scopolamine Induced Memory Deficit. Put plainly: Dark Avoidance Assay (reversal of scopolamine induced memory deficit). The settings on record: mice, s.c., tested again after 24 hours. The experiment is classed as in vivo. The method, then:
This utility can also be ascertained by determining the ability of these compounds to restore cholinergically deficient memory in the Dark Avoidance Assay. In this assay mice are tested for their ability to remember an unpleasant stimulus for a period of 24 hours. A mouse is placed in a chamber that contains a dark compartment; a strong incadescent light drives it to the dark compartment, where an electric shock is administered through metal plates on the floor. The animal is removed from the testing apparatus and tested again, 24 hours later, for the ability to remember the electric shock.
If scopolamine, an anticholinergic that is known to cause memory impairment, is administered before an animal's initial exposure to the test chamber, the animal re-enters the dark compartment shortly after being placed in the test chamber 24 hours later. This effect of scopolamine is blocked by an active test compound, resulting in a greater interval before re-entry into the dark compartment.
The test results are expressed as the percent of a group of animals in which the effect of scopolamine is blocked, as manifested by an increased interval between being placed in the test chamber and re-entering the dark compartment. Results of Dark Avoidance Assay for some of the compounds of this invention are presented in Table 2 along with a result for a reference compound.

Where [3] appears, read: photometric method of Ellman et al., read-out: Acetylcholinesterase Inhibition IC50.

Acetylcholinesterase, sequence (P22303 32-614): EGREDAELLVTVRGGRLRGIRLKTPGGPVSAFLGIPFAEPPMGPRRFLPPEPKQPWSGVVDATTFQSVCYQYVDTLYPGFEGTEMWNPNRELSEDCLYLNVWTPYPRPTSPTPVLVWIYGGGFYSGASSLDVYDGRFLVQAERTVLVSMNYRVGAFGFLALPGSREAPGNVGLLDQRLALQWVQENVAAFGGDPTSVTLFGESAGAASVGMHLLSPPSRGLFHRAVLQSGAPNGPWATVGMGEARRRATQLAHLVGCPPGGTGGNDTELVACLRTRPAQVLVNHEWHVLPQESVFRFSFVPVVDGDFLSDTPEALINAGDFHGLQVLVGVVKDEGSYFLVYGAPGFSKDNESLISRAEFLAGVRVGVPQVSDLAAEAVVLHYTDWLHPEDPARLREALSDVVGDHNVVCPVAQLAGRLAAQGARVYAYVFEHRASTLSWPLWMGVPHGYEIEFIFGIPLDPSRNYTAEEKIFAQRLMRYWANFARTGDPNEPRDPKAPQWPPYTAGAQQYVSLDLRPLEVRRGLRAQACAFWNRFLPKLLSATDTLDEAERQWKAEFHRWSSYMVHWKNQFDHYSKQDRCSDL

Consider `Nc1c2c(nc3ccccc13)C1CCC2CC1` [9-Amino-1,4-ethano-1,2,3,4-tetrahydroacridine], for which the IC50 in experiment [1] (setting [3]) turned out to be 6.6 µM. For the compound `Nc1c2c(nc3ccccc13)C1C=CC2CC1` (centres unmarked) [9-Amino-1,4-dihydro-1,4-ethanoacridine], in experiment [1] (setting [3]), the IC50 came to 1.4 µM.

`Nc1c2c(nc3cc(F)ccc13)C1CCC2C1` (centres unmarked) [9-Amino-6-fluoro-1,4-methano-1,2,3,4-tetrahydroacridine]: the IC50 in experiment [1] was found to be 0.08 µM. The “% of Animals with Scopolamine Induced Memory Deficit Reversal” value (“% of Animals” below) in experiment [2] (0.63 mg/kg of body weight) was 9%. On to `Cc1ccc2c(N)c3c(nc2c1)C1CCC3C1` (centres unmarked) [9-Amino-1,4-methano-6-methyl-1,2,3,4-tetrahydroacridine], for which half-maximal inhibition in experiment [1] (IC50) required 0.3 µM. In experiment [2] (2.5 mg/kg of body weight), the “% of Animals” value amounted to 36%. In turn, `Nc1c2c(nc3cc(C(F)(F)F)ccc13)C1CCC2C1` (centres unmarked) [9-Amino-1,4-methano-1,2,3,4-tetrahydro-6-trifluoromethylacridine] gave an IC50 in experiment [1] of 4 µM. Moreover, the “% of Animals” value in experiment [2] (0.16 mg/kg of body weight) turned out to be 20%. In the case of `c1ccc(Nc2c3c(nc4ccccc24)C2CCC3C2)cc1` (centres unmarked) [9-Phenylamino-1,4-methano-1,2,3,4-tetrahydroacridine], the IC50 in experiment [1] is > 1000 µM. Moreover, the “% of Animals” value in experiment [2] (0.16 mg/kg of body weight) was determined as 20%.

Take `Nc1c2c(nc3ccccc13)C1CCC2C1` (centres unmarked) [9-Amino-1,4-methano-1,2,3,4-tetrahydroacridine]: in experiment [2] (2.5 mg/kg of body weight), the “% of Animals” value was 40%.

On to `C1=CC2CCC1c1nc3ccccc3c(NCc3ccccc3)c12` (centres unmarked) [9-Benzylamino-1,4-dihydro-1,4-ethanoacridine], for which the IC50 in experiment [1] (setting [3]) came out at 52 µM. On the same count and under the same terms, for `c1ccc(CNc2c3c(nc4ccccc24)C2CCC3CC2)cc1` [9-Benzylamino-1,4-ethano-1,2,3,4-tetrahydroacridine] the value was 78 µM. Still for that read-out and setting: for `FC(F)(F)c1ccc2c(NCc3ccccc3)c3c(nc2c1)C1CCC3C1` (centres unmarked) [9-Benzylamino-1,4-methano-1,2,3,4-tetrahydro-6-trifluoromethylacridine] the value was > 1000 µM; for `Cc1ccc2c(NCc3ccccc3)c3c(nc2c1)C1CCC3C1` (centres unmarked) [9-Benzylamino-1,4-methano-6-methyl-1,2,3,4-tetrahydroacridine], 31 µM; for `c1ccc(CNc2c3c(nc4ccccc24)C2CCC3C2)cc1` (centres unmarked) [9-Benzylamino-1,4-methano-1,2,3,4-tetrahydroacridine], > 1000 µM. Take `CNC(=O)Oc1ccc2c(c1)[C@]1(C)CCN(C)[C@@H]1N2C` [Physostigmine, reference compound]: in experiment [2] (0.31 mg/kg of body weight), the “% of Animals” value turned out to be 20%.
